Assay results from publication PMC6272327, “Discovery of Metal Ions Chelator Quercetin Derivatives with Potent Anti-HCV Activities” (Molecules, 2015).
Read-outs that look alike come from different tables or passages of the source.

Assays:
HCV NS5B polymerase = target: HCV NS5B polymerase; parameters: method as in PMID 14695815, PMID 15481971, PMID 15149686; settings: HCV NS5B polymerase inhibition, Figures 1 and 2; cited from earlier work
[1] = test system: HCV infectious virus J399EM; assay: Anti-HCV assay in authentic HCV infection/replication system (J399EM EGFP reporter virus) in Huh7.5.1 cells; assay type: cell-based, hepatitis C virus (JFH1-derived, genotype 2a); settings: for SI (selectivity index): ratio of CC50 to EC50, Huh7.5.1 cells; for EC50: Hepatitis C virus, Huh-7.5.1, 72 h
Method: (§1) The inhibition of HCV by all synthesized quercetin derivatives was evaluated following a previously reported procedure. All newly synthesized compounds were tested in authentic HCV infection/replication system in the human hepatoma cell lines Huh7.5.1 using mycophenolic acid (MPA) as control compound. The cytotoxicity effect of the test compounds was also evaluated in the same cell line by MTT method. Antiviral effect and cytotoxicity effect were summarized as EC50 and CC50 respectively, as well as the selective index (SI) which is the ratio of CC50 to EC50. The stability of quercetin-3-O-ester compounds were also tested in the same buffer as the antiviral activity assay at 37 °C and the hydrolysate was measured by HPLC.
The biological assays were performed following a previously reported procedure. The Huh7.5.1 cell line and the HCV infectious virus J399EM were kindly provided by Xin-Wen Chen, Wuhan Institute of Virology, Chinese Academy of Sciences. Huh7.5.1 cells were cultured in Dulbecco’s modified Eagle’s medium (DMEM) containing 10% (v/v) fetal bovine serum, 0.5 mg/mL G418, 100 IU/mL penicillin, and […].
J399EM is an infectious HCV virus derived from the JFH1 virus (genotype 2a) by insertion of enhanced green fluorescent protein (EGFP) into the HCV NS5A region. The establishment of the infectious J399EM HCV virus has been described previously. J399EM was propagated in Huh7.5.1 cells. Briefly, Huh7.5.1 cells were infected with J399EM at MOI = 0.1 and cultured for 4 days. Culture supernatant was collected and filtered through a 0.45 μm membrane and stored at −80 °C as virus stock. Virus titer was tested in Huh7.5.1 cells. Stocks were serially diluted, and the foci forming units (FFU) were determined as the number of fluorescent colonies formed in infected Huh7.5.1.
All the compounds were first dissolved in DMSO at 50 mM, and then diluted to various concentrations (50 μM, 25 μM, 12.5 μM, 6.3 μM and 3.1 μM). Approximately 1 × 10^4 Huh7.5.1 cells per well were plated in an opaque 96-well tissue culture plate (Costar 3904). The next day, the medium was replaced by J399EM virus at an MOI of 0.3. Four hours later, the virus inoculum was removed and medium containing different concentrations of compounds was added. After an additional 72 h of incubation, the culture medium was removed and the EGFP autofluorescence was measured by using a […] with excitation at 488 nm and emission at 516 nm. Compounds and controls were performed in duplicate and each experiment repeated independently at least twice.

[2] = Cell viability / cytotoxicity by MTT method; assay type: cell-based; settings: human
Method: as §1
After the EGFP signal was read, cell viability was measured in the same plate by the MTT [3-(4,5-dimethylthiazol-2-yl)-2,5-diphenyltetrazolium bromide; Sigma-Aldrich, St. Louis, MO, USA] method. Briefly, MTT (1 mg/mL) was dissolved in PBS. Cell culture supernatants were removed and replaced with MTT and further cultured for 4 h; cells were then lysed with 10% sodium dodecyl sulfate (SDS), 50% N,N-dimethylformamide, pH 7.2. OD570 values were read. The percentage of cell death was calculated against the control well without compounds.

[3] = test system: HCV infectious virus J399EM; parameters: method as in PMID 22445328; settings: cited from earlier work; for inhibition against HCV: at 50 μM, previous results
HCV RdRp = test system: HCV RdRp; parameters: method as in PMID 25053847; settings: at the concentration of 20 μM in an enzyme assay; cited from earlier work
[4] = Huh7.5.1 cells, MTT, concentration required to reduce cell proliferation by 50%, average of duplicate determinations, read-out: CC50

## O=C(O)/C(O)=C/C(=O)c1ccccc1 [Compound 1a]
HCV NS5B polymerase
  IC50: 5.7 µM

## N#Cc1c(Cl)cc(Cl)cc1COc1cccc(C(=O)/C=C(\O)C(=O)O)c1 [Compound 1b]
HCV NS5B polymerase
  IC50: 0.045 µM

## O=C(O)c1nc(-c2cccs2)nc(O)c1O [Compound 1d, dihydroxypyrimidine carboxylic acid]
HCV NS5B polymerase
  IC50: 2.6 µM

## O=c1c(O)c(-c2ccc(O)c(O)c2)oc2cc(O)cc(O)c12 [Compound 2, quercetin]
[1]
  SI (selectivity index): >2.5
[2]; [4]
  CC50: > 50 µM
[3]; anti-HCV activity of quercetin, earlier work of the authors
  EC50: 19.8 µM
HCV RdRp
  inhibition of HCV RdRp: 83.7%

## O=C(Oc1c(-c2ccc(O)c(O)c2)oc2cc(O)cc(O)c2c1=O)c1ccccc1 [Compound 4a, 2-(3,4-Dihydroxyphenyl)-5,7-dihydroxy-4-oxo-4H-chromen-3-yl benzoate]
[1]
  EC50: 14.3 ± 5.1 µM
  SI (selectivity index): >3.5
[2]
  CC50: > 50 µM
other
  melting point: 173 to 174 °C

## O=C(Oc1c(-c2ccc(O)c(O)c2)oc2cc(O)cc(O)c2c1=O)c1ccccc1F [Compound 4b, 2-(3,4-Dihydroxyphenyl)-5,7-dihydroxy-4-oxo-4H-chromen-3-yl 2-fluorobenzoate]
[1]
  EC50: 12.9 ± 3.2 µM
  SI (selectivity index): >3.9
[2]
  CC50: > 50 µM
other
  melting point: 186 to 187 °C

## Nc1ccccc1C(=O)Oc1c(-c2ccc(O)c(O)c2)oc2cc(O)cc(O)c2c1=O [Compound 4c, 2-(3,4-Dihydroxyphenyl)-5,7-dihydroxy-4-oxo-4H-chromen-3-yl 2-aminobenzoate]
[1]
  EC50: 12.8 ± 2.8 µM
  SI (selectivity index): >3.9
[2]; [4]
  CC50: > 50 µM
other
  melting point: 198 to 199 °C

## COc1ccccc1C(=O)Oc1c(-c2ccc(O)c(O)c2)oc2cc(O)cc(O)c2c1=O [Compound 4d, 2-(3,4-Dihydroxyphenyl)-5,7-dihydroxy-4-oxo-4H-chromen-3-yl 2-methoxybenzoate]
[1]
  EC50: 11.7 ± 1.3 µM
  SI (selectivity index): >4.3
[2]
  CC50: > 50 µM
other
  melting point: 183 to 184 °C

## N#Cc1ccccc1C(=O)Oc1c(-c2ccc(O)c(O)c2)oc2cc(O)cc(O)c2c1=O [Compound 4e, 2-(3,4-Dihydroxyphenyl)-5,7-dihydroxy-4-oxo-4H-chromen-3-yl 2-cyanobenzoate]
[1]
  EC50: 20.2 ± 8.6 µM
  SI (selectivity index): >2.5
[2]
  CC50: > 50 µM
other
  melting point: 196 to 197 °C

## O=C(Oc1c(-c2ccc(O)c(O)c2)oc2cc(O)cc(O)c2c1=O)c1cccc(F)c1 [Compound 4f, 2-(3,4-Dihydroxyphenyl)-5,7-dihydroxy-4-oxo-4H-chromen-3-yl 3-fluorobenzoate]
[1]
  EC50: 9 ± 4.5 µM
  SI (selectivity index): >5.6
[2]
  CC50: > 50 µM
other
  melting point: 211 to 213 °C

## Nc1cccc(C(=O)Oc2c(-c3ccc(O)c(O)c3)oc3cc(O)cc(O)c3c2=O)c1 [Compound 4g, 2-(3,4-Dihydroxyphenyl)-5,7-dihydroxy-4-oxo-4H-chromen-3-yl 3-aminobenzoate]
[1]
  EC50: 21.1 ± 1.3 µM
  SI (selectivity index): >2.4
[2]
  CC50: > 50 µM
other
  melting point: 216 to 217 °C

## COc1cccc(C(=O)Oc2c(-c3ccc(O)c(O)c3)oc3cc(O)cc(O)c3c2=O)c1 [Compound 4h, 2-(3,4-Dihydroxyphenyl)-5,7-dihydroxy-4-oxo-4H-chromen-3-yl 3-methoxybenzoate]
[1]
  EC50: 15.6 ± 0.3 µM
  SI (selectivity index): >3.2
[2]
  CC50: > 50 µM
other
  melting point: 173 to 174 °C

## N#Cc1cccc(C(=O)Oc2c(-c3ccc(O)c(O)c3)oc3cc(O)cc(O)c3c2=O)c1 [Compound 4i, 2-(3,4-Dihydroxyphenyl)-5,7-dihydroxy-4-oxo-4H-chromen-3-yl 3-cyanobenzoate]
[1]
  EC50: 13.1 ± 1 µM
  SI (selectivity index): >3.8
[2]
  CC50: > 50 µM
other
  melting point: 142 to 143 °C

## O=C(Oc1c(-c2ccc(O)c(O)c2)oc2cc(O)cc(O)c2c1=O)c1cccc(Cl)c1 [Compound 4j, 2-(3,4-Dihydroxyphenyl)-5,7-dihydroxy-4-oxo-4H-chromen-3-yl 3-chlorobenzoate]
[1]
  EC50: 23 ± 3.2 µM
[2]
  CC50: > 50 µM
other
  melting point: > 300 °C

## O=C(Oc1c(-c2ccc(O)c(O)c2)oc2cc(O)cc(O)c2c1=O)c1ccc(F)cc1 [Compound 4k, 2-(3,4-Dihydroxyphenyl)-5,7-dihydroxy-4-oxo-4H-chromen-3-yl 4-fluorobenzoate]
[1]
  EC50: 9.7 ± 3.1 µM
  SI (selectivity index): 3.6
[2]
  CC50: 35 ± 2.4 µM
other
  melting point: 203 to 205 °C

## Nc1ccc(C(=O)Oc2c(-c3ccc(O)c(O)c3)oc3cc(O)cc(O)c3c2=O)cc1 [Compound 4l, 2-(3,4-Dihydroxyphenyl)-5,7-dihydroxy-4-oxo-4H-chromen-3-yl 4-aminobenzoate]
[1]
  EC50: 23.8 ± 0.8 µM
  SI (selectivity index): >2.1
[2]
  CC50: > 50 µM
other
  melting point: 233 to 234 °C

## COc1ccc(C(=O)Oc2c(-c3ccc(O)c(O)c3)oc3cc(O)cc(O)c3c2=O)cc1 [Compound 4m, 2-(3,4-Dihydroxyphenyl)-5,7-dihydroxy-4-oxo-4H-chromen-3-yl 4-methoxybenzoate]
[1]
  EC50: 13.6 ± 2.1 µM
  SI (selectivity index): 2.5
[2]
  CC50: 33.9 ± 3.7 µM
other
  melting point: 194 to 195 °C

## N#Cc1ccc(C(=O)Oc2c(-c3ccc(O)c(O)c3)oc3cc(O)cc(O)c3c2=O)cc1 [Compound 4n, 2-(3,4-Dihydroxyphenyl)-5,7-dihydroxy-4-oxo-4H-chromen-3-yl 4-cyanobenzoate]
[1]
  EC50: 11.4 ± 2.3 µM
  SI (selectivity index): >4.4
[2]
  CC50: > 50 µM
other
  melting point: 196 to 197 °C

## O=C(Oc1c(-c2ccc(O)c(O)c2)oc2cc(O)cc(O)c2c1=O)c1ccc(Cl)cc1 [Compound 4o, 2-(3,4-Dihydroxyphenyl)-5,7-dihydroxy-4-oxo-4H-chromen-3-yl 4-chlorobenzoate]
[1]
  EC50: 14.3 ± 2.2 µM
  SI (selectivity index): >3.5
[2]
  CC50: > 50 µM
other
  melting point: 194 to 195 °C

## CC(C)Oc1c(-c2ccc(O)c(O)c2)oc2cc(O)cc(O)c2c1=O [Compound 12b, 2-(3,4-Dihydroxyphenyl)-5,7-dihydroxy-3-isopropoxy-4H-chromen-4-one]
[1]
  EC50: 38.9 ± 2.5 µM
  SI (selectivity index): 0.7
[2]
  CC50: 28.8 ± 2 µM
other
  melting point: 259 to 262 °C

## N#CCCCOc1c(-c2ccc(O)c(O)c2)oc2cc(O)cc(O)c2c1=O [Compound 12d, 4-(2-(3,4-Dihydroxyphenyl)-5,7-dihydroxy-4-oxo-4H-chromen-3-yloxy)butanenitrile]
[1]
  EC50: > 50 µM
[2]
  CC50: > 50 µM
other
  melting point: 169 to 171 °C

## COc1cc(-c2oc3cc(O)cc(O)c3c(=O)c2O)ccc1O [isorhamnetin]
[3]
  inhibition against HCV: 47.3%

## O=c1c(O)c(-c2ccc(O)cc2)oc2cc(O)cc(O)c12 [kaempferol]
[3]
  inhibition against HCV: 51.9%

## meconic acid [Compound 1c]
HCV NS5B polymerase
  IC50: 2.3 µM
